The values that follow come from doi:10.1101/641969v1 (biorxiv, 2019).

One test deals with T1, PmCntL (Paenibacillus mucilaginosus, UniProt H6NF62).
T1 sequence (H6NF62 1-276): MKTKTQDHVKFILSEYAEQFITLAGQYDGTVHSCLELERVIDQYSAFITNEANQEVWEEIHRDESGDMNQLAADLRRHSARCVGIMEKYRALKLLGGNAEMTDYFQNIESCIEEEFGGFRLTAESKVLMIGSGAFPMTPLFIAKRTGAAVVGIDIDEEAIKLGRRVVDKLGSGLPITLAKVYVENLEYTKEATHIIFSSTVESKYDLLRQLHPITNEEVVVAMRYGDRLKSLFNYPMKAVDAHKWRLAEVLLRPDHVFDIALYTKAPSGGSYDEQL
Briefly: TLC of products from carboxyl-[…]-labeled SAM. Format: biochemical. The following applies: 10 µM D-histidine, 2.5 µM [14C]SAM, pH 9, 28 °C, 30 min.

The target in another test is T2, PmCntM (Paenibacillus mucilaginosus, UniProt H6NF63).
T2 sequence (H6NF63 1-440): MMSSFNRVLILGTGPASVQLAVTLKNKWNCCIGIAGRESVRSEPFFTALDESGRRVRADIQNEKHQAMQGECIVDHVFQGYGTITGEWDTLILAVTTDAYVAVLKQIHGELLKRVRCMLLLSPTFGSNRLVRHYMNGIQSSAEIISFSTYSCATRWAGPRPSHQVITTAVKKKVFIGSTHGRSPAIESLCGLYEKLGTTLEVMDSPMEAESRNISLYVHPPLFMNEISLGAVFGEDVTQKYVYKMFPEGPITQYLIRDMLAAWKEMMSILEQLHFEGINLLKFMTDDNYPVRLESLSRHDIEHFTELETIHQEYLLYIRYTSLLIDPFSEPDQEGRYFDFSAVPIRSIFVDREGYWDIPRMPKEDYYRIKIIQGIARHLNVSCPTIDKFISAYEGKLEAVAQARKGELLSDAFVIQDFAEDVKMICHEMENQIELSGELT
Briefly: NADPH oxidation at […] nm, initial rates. Format: biochemical.

Test [1] has as its target T3, PaCntM (Pseudomonas aeruginosa, UniProt Q9HUX5).
T3 sequence (Q9HUX5 1-433): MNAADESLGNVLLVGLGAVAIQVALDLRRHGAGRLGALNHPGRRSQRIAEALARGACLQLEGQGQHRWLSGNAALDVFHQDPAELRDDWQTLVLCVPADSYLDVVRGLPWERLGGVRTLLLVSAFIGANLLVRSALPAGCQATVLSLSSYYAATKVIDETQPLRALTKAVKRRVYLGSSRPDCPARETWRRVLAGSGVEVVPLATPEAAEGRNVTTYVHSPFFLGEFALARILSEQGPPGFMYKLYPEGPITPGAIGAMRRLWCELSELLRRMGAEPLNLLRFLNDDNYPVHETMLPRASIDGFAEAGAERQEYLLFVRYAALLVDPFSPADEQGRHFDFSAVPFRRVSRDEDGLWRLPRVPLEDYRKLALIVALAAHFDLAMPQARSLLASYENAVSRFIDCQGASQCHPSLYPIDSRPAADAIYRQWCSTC
Nature of the test: NADH oxidation at […] nm, initial rates, Michaelis-Menten fit. The following applies: 0.2 mM NADH, 1 mM α-ketoglutarate, pH 8, 28 °C.

Test [2] deals with T4, SaCntM (Staphylococcus aureus, UniProt A0A0H3JT80).
T4 sequence (A0A0H3JT80 1-433): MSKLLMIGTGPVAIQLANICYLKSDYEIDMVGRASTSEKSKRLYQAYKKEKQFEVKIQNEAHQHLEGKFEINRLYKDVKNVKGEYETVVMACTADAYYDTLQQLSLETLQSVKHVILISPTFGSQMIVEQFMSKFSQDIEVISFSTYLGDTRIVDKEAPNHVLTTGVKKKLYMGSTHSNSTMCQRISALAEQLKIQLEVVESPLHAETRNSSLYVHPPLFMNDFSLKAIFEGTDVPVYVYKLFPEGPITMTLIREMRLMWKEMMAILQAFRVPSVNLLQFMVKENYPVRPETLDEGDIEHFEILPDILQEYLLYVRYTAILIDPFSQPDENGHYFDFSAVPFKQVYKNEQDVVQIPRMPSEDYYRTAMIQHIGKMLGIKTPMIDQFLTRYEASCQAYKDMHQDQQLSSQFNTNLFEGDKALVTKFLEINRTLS
Nature of the test: NADPH oxidation at […] nm, initial rates, Michaelis-Menten fit. Format: biochemical. The following applies: 0.2 mM NADPH, 1 mM pyruvate, pH 7, 28 °C.

Test [3] concerns the target T3, PaCntM. Nature of the test: NADH oxidation at […] nm, initial rates, substrate inhibition model. The test is classed as biochemical. The following applies: 0.2 mM NADH, 1 mM α-ketoglutarate, pH 8, 28 °C.
Test [4] addresses T4, SaCntM. Briefly: NADPH oxidation at […] nm, initial rates, substrate inhibition model. The following applies: 0.2 mM NADPH, 1 mM pyruvate, pH 7, 28 °C. Format: biochemical.
Test [5] addresses T4, SaCntM. Described as above. The following applies: 0.2 mM NADPH, 1 mM pyruvate, pH 7, 28 °C. The test is classed as biochemical. The source holds these as a separate data set.
Test [6] addresses T3, PaCntM. Briefly: NADH oxidation at […] nm, initial rates, substrate inhibition model. Format: biochemical. The following applies: 0.2 mM NADH, 1 mM α-ketoglutarate, pH 8, 28 °C. The source holds these as a separate data set.

Take `N[C@H](Cc1c[nH]cn1)C(=O)O` [D-histidine]: the “TLC of products from carboxyl-[14C]-labeled SAM” value at PmCntL is “PmCntL uses D-His and not L-His”.

Consider `N[C@@H](CCN[C@H](Cc1c[nH]cn1)C(=O)O)C(=O)O` [xNA], for which the Km on PmCntM is 12 ± 1 µM; on PaCntM [1], 54 ± 20 µM; on SaCntM [2], 23 ± 3 µM.

In the case of `N[C@@H](CCN[C@@H](Cc1c[nH]cn1)C(=O)O)C(=O)O` [yNA], the Ki on PaCntM [3] is listed as 2.4 ± 1.0 mM; on SaCntM [4], 2.3 ± 0.8 mM. The Km stood at 7 ± 1 µM on PmCntM, 47 ± 9 µM at SaCntM [5] and 21 ± 7 µM at PaCntM [6].
